What was measured:
Assay type in all cases: in vivo, mouse
G93A mice = experiment: Histopathology of sciatic nerves of G93A mice; details: 10 mg/kg daily, day 100
Excerpt: We next performed histopathological analysis of sciatic nerves from WT control and G93A mice receiving compound 2a or vehicle. […] Using Luxol Fast Blue (LFB) staining, which binds lipoproteins of the myelin sheath, we analyzed myelination in sagittal sections of these nerves. […] Therefore, we observed a reduction of fibers degeneration and demyelination in sciatic nerves of G93A mice treated with compound 2a.
Comparative studies on sciatic nerves were done on tissues removed upon saline perfusion and rapidly fixed with 2% glutaraldehyde in 0.12 mol/L phosphate buffer, post fixed with 1% osmium tetroxide, and embedded in Epon (Fluka). Semi-thin sections (1 μm thick) were stained with toluidine blue and examined by light microscopy (Olympus BX51). Digitized not overlapping semi-thin section images from corresponding levels of the sciatic nerve were obtained with a digital camera (Leica DFC300F) using a 40X objective. Quantifications were done on at least 5 acquired images from each mouse. The numbers of degenerating nerve fibers were quantified using ImageJ software (National Institutes of Health, Bethesda, Md.).

[1] = test system: poly-ubiquitinated proteins; experiment: Poly-ubiquitinated proteins in lumbar spinal cord of G93A mice; details: 10 mg/kg, day 100
Excerpt: (§1) Ubiquitinated inclusions accumulate in MNs of sALS and fALS patients and in lumbar SCs of ALS mice (Kabashi 2001). High levels of ubiquitinated proteins may represent an overwhelmed response of MNs to protein misfolding and aggregation, as well as a reduction of lysosome functionality. We characterized poly-ubiquitinated proteins in lumbar SCs protein extracts by 10% denaturating PAGE. We included in our experiments protein extracts from Neuro2a cells treated with the proteasome inhibitor Bortezomib (BTZ), able to increase poly-ubiquitination, as an experimental control (FIG. 13A). […] We next scored ubiquitin MFI levels in ventral horn MNs of G93A mice. […] As previously observed in Neuro2a cells, the overexpression of G93A plasmids affects the Golgi apparatus, therefore we asked whether similar alterations can occur in G93A mice by labeling lumbar sections for the cis-Golgi matrix protein GM130.
Lumbar spinal cords were dissected from saline perfused mice and rapidly homogenized in the following lysis buffer: Tris-HCl 10 mM pH 8, EDTA pH 8 1 mM, NaCl 100 mM, NP40 1% and protease inhibitor cocktail (Sigma). […] Protein concentrations were measured by BCA protein assay kit (Thermofisher) according to the manufacturer's recommendations. […] Quantifications were done using the Image Lab 6.0.1 software (Bio-Rad). […]

Golgi apparatus (GM130) = experiment: GM130 Golgi labelling in MNs of G93A mice; details: 10 mg/kg, day 100
Excerpt: as §1
Sections from mice (frozen cryo sections) or glass covers containing cells were washed three times in PBS 1× (Lonza, 5 min each), and incubated in the following blocking mix: PBS 1×/FBS 10% (Invitrogen), BSA 1 mg/mL (Sigma), TritonX100 0.1% (Sigma), for 1 h at room temperature. Antibodies were diluted in blocking mix and incubated at +4° C. overnight according manufacturer's instructions. […]

N=C(N)NN=Cc1cccc(C=NNC(=N)N)c1 [Compound 2a, 1,3-Bis-amino guanidine phenyl hydrazone]
degenerating peripheral nerve fibers in sciatic nerves (G93A mice): significant protection of peripheral nerve fibers
demyelination (Luxol Fast Blue staining) (G93A mice): substantial attenuation of the demyelination process
myelin integrity (MBP and NF-M labelling) (G93A mice): preserved the integrity of myelin
MFI levels of ubiquitin fluorescence in ventral horn MNs [1]: vehicle-treated G93A MNs were higher than levels scored in compound 2a-treated G93A mice
poly-ubiquitination (WB densitometry) [1]: substantially reduced
reduction of GM130-covered areas in MNs (Golgi apparatus (GM130)): substantially reverted

From patent US20220213030A1, “AMINOGUANIDINE HYDRAZONES AS RETROMER STABILIZERS USEFUL FOR TREATING NEUROLOGICAL DISEASES” (OSPEDALE SAN RAFFAELE SRL, priority 2019, published 2022)
